Laboratory results: PMC10681007, “Targeted Degradation of XIAP is Sufficient and Specific to Induce Apoptosis in MYCN-overexpressing High-risk Neuroblastoma” (Cancer Research Communications, 2023)

Columns and labels:
Format in all cases: cell-based, Human
THLE3 and HS5 = assay: Toxicity and tolerability in noncancerous normal tissue-derived cell lines; conditions: THLE3 and HS5 versus neuroblastoma cells
Method: (§1) Cell viability was measured in real time using RealTime-Glo MT Cell Viability Assay as according to manufacturer's instructions from Promega. Cells were seeded at 1 × 10^4 cells per well and treated with a range of doses of indicated antagonists, followed by continuous bioluminescence reading every 24 hours for 3 days using luminescent plate reader, Varioskan (SkanIT software). IC50 was determined using GraphPad Prism software.
To evaluate this, noncancerous normal tissue-derived cell lines THLE3 and HS5 were utilized to evaluate toxicity and tolerability. […] On the basis of their overall potency and specificity toward neuroblastoma cells over noncancerous normal cells, A4, B3, and BV6 were selected as the more efficacious antagonists to be studied further in subsequent experiments (Fig. 2A).

[1] = system: neuroblastoma cells across the panel of cell lines; assay: Cell viability, IC50 range across the panel; conditions: Homo sapiens, Neuroblastoma cell; range over cell lines, doses 0–100 µmol/L, viability every 24 for 72 hours; read-out: IC50 against neuroblastoma cells across the panel of cell lines
Method: as §1, with “([…]” for “(SkanIT”, “software. To determine their efficacy in neuroblastoma, a panel of neuroblastoma cell lines including neuroblastoma patient-derived cell lines and noncancerous normal tissue-derived cell lines were treated with increasing doses of each antagonist (0-100 μmol/L), followed by real-time measurement of cell viability every 24 for 72 hours. […] Supplementary Table S2; Fig. 2A). […] Fig. 2A).” for “software.”

SK-N-AS = assay: RealTime-Glo MT cell viability assay; conditions: Homo sapiens
Method: as §1
(§2) To determine their efficacy in neuroblastoma, a panel of neuroblastoma cell lines including neuroblastoma patient-derived cell lines and noncancerous normal tissue-derived cell lines were treated with increasing doses of each antagonist (0–100 µmol/L), followed by real-time measurement of cell viability every 24 for 72 hours.

NB1 = assay: RealTime-Glo MT cell viability assay; conditions: Homo sapiens
Method: as §1, §2

[2] = system: NBL16-0118 patient-derived neuroblastoma cells; assay: RealTime-Glo MT cell viability assay; conditions: Homo sapiens, Neuroblastoma cell
Method: as §1, §2

CHP212 = assay: RealTime-Glo MT cell viability assay; conditions: Homo sapiens, CHP-212
Method: as §1, §2

NLF = assay: RealTime-Glo MT cell viability assay; conditions: Homo sapiens
Method: as §1, §2

[3] = system: NBL27-0218A patient-derived neuroblastoma cells; assay: RealTime-Glo MT cell viability assay; conditions: Homo sapiens, Neuroblastoma cell
Method: as §1, §2

KELLY = assay: RealTime-Glo MT cell viability assay; conditions: Homo sapiens
Method: as §1, §2

[4] = system: NBL-07-0317 patient-derived neuroblastoma cells; assay: RealTime-Glo MT cell viability assay; conditions: Homo sapiens, Neuroblastoma cell
Method: as §1, §2

[5] = system: NBL01-1116 patient-derived neuroblastoma cells; assay: RealTime-Glo MT cell viability assay; conditions: Homo sapiens, Neuroblastoma cell
Method: as §1, §2

IMR-32 = assay: RealTime-Glo MT cell viability assay; conditions: Homo sapiens
Method: as §1, §2

SK-N-SH = assay: RealTime-Glo MT cell viability assay; conditions: Homo sapiens
Method: as §1, §2

BE(2)-C = assay: RealTime-Glo MT cell viability assay; conditions: Homo sapiens
Method: as §1, §2

THLE3 (liver origin) = assay: RealTime-Glo MT cell viability assay, noncancerous normal cells; conditions: Homo sapiens
Method: as §1, §2
(§3) To evaluate this, noncancerous normal tissue-derived cell lines THLE3 and HS5 were utilized to evaluate toxicity and tolerability.

HS5 (bone marrow origin) = assay: as above; conditions: Homo sapiens
Method: as §1, §2, §3

For `CN[C@@H](C)C(=O)N[C@H](C(=O)N1CCC[C@H]1C(=O)Nc1sc(-c2ncco2)nc1-c1ccccc1)C1CCCCC1` [CUDC-427], the “toxicity to noncancerous cells” value (THLE3 and HS5) was “more toxic toward noncancerous cells than neuroblastoma cells”, the IC50 [1] was 20 to 60 µM and the IC50 (SK-N-AS; 24 hours) was 33.2 µM. It also gave an IC50 (SK-N-AS; 48 hours) of 26.9 µM, an IC50 (SK-N-AS; 72 hours) of 22.3 µM and an IC50 (NB1; NB1, 24 hours) of 42 µM. For the same compound, the IC50 (NB1; NB1, 48 hours) was 38.1 µM, the IC50 (NB1; NB1, 72 hours) was 36.9 µM and the IC50 ([2]; NBL16-0118, 24 hours) was 35 µM. The IC50 ([2]; NBL16-0118, 48 hours) was 32 µM, the IC50 ([2]; NBL16-0118, 72 hours) was 30 µM and the IC50 (CHP212; CHP212, 24 hours) was 57.6 µM. The IC50 (CHP212; CHP212, 48 hours) was 50.1 µM, the IC50 (CHP212; CHP212, 72 hours) was 50 µM and the IC50 (NLF; 24 hours) was 45 µM. For the same compound, the IC50 (NLF; 48 hours) was 38.6 µM, the IC50 (NLF; 72 hours) was 30.2 µM and the IC50 ([3]; 24 hours) was 32.8 µM. For the same compound, the IC50 ([3]; 48 hours) was 30.4 µM, the IC50 ([3]; 72 hours) was 28.4 µM and the IC50 (KELLY; 24 hours) was 32.5 µM. For the same compound, the IC50 (KELLY; 48 hours) was 29.5 µM, the IC50 (KELLY; 72 hours) was 26 µM and the IC50 ([4]; NBL-07-0317, 24 hours) was 33.5 µM. The IC50 ([4]; NBL-07-0317, 48 hours) was 33 µM, the IC50 ([4]; NBL-07-0317, 72 hours) was 32 µM and the IC50 ([5]; NBL01-1116, 24 hours) was 40 µM. It also gave an IC50 ([5]; NBL01-1116, 48 hours) of 38 µM, an IC50 ([5]; NBL01-1116, 72 hours) of 38 µM and an IC50 (IMR-32; IMR-32, 24 hours) of 59 µM. For the same compound, the IC50 (IMR-32; IMR-32, 48 hours) was 46.5 µM, the IC50 (IMR-32; IMR-32, 72 hours) was 40.6 µM and the IC50 (SK-N-SH; 24 hours) was 54.1 µM. The IC50 (SK-N-SH; 48 hours) was 40 µM, the IC50 (SK-N-SH; 72 hours) was 33.5 µM and the IC50 (BE(2)-C; 24 hours) was 64.9 µM. The IC50 (BE(2)-C; 48 hours) was 60.9 µM, the IC50 (BE(2)-C; 72 hours) was 55.6 µM and the IC50 (THLE3 (liver origin); THLE3, 24 hours) was 40.2 µM. For the same compound, the IC50 (THLE3 (liver origin); THLE3, 48 hours) was 28.8 µM, the IC50 (THLE3 (liver origin); THLE3, 72 hours) was 29.5 µM and the IC50 (HS5 (bone marrow origin); HS5, 24 hours) was 29.9 µM. It also gave an IC50 (HS5 (bone marrow origin); HS5, 48 hours) of 26.5 µM and an IC50 (HS5 (bone marrow origin); HS5, 72 hours) of 23.8 µM.
With `CN[C@@H](C)C(=O)N[C@H]1CN(C(=O)CC(C)C)CC[C@H]2CC[C@@H](C(=O)NC(c3ccccc3)c3ccccc3)N2C1=O` [Debio 1143] the “toxicity to noncancerous cells” value (THLE3 and HS5) was “more toxic toward noncancerous cells than neuroblastoma cells”, the IC50 (SK-N-AS; 24 hours) was 68.5 µM and the IC50 (SK-N-AS; 48 hours) was 50.5 µM. The IC50 (SK-N-AS; 72 hours) was 85 µM, the IC50 (NB1; NB1, 24 hours) was > 100 µM and the IC50 (NB1; NB1, 48 hours) was > 100 µM. The IC50 (NB1; NB1, 72 hours) was 64.5 µM, the IC50 ([2]; NBL16-0118, 24 hours) was > 100 µM and the IC50 ([2]; NBL16-0118, 48 hours) was > 100 µM. The IC50 ([2]; NBL16-0118, 72 hours) was > 100 µM, the IC50 (CHP212; CHP212, 24 hours) was > 100 µM and the IC50 (CHP212; CHP212, 48 hours) was > 100 µM. The IC50 (CHP212; CHP212, 72 hours) was > 100 µM, the IC50 (NLF; 24 hours) was > 100 µM and the IC50 (NLF; 48 hours) was 78.5 µM. The IC50 (NLF; 72 hours) was > 100 µM, the IC50 ([3]; 24 hours) was > 100 µM and the IC50 ([3]; 48 hours) was > 100 µM. The IC50 ([3]; 72 hours) was 50 µM, the IC50 (KELLY; 24 hours) was 91 µM and the IC50 (KELLY; 48 hours) was 73.5 µM. The IC50 (KELLY; 72 hours) was > 100 µM, the IC50 ([4]; NBL-07-0317, 24 hours) was > 100 µM and the IC50 ([4]; NBL-07-0317, 48 hours) was 93 µM. The IC50 ([4]; NBL-07-0317, 72 hours) was > 100 µM, the IC50 ([5]; NBL01-1116, 24 hours) was > 100 µM and the IC50 ([5]; NBL01-1116, 48 hours) was > 100 µM. For the same compound, the IC50 ([5]; NBL01-1116, 72 hours) was > 100 µM, the IC50 (IMR-32; IMR-32, 24 hours) was > 100 µM and the IC50 (IMR-32; IMR-32, 48 hours) was > 100 µM. For the same compound, the IC50 (IMR-32; IMR-32, 72 hours) was 64.5 µM, the IC50 (SK-N-SH; 24 hours) was > 100 µM and the IC50 (SK-N-SH; 48 hours) was > 100 µM. For the same compound, the IC50 (SK-N-SH; 72 hours) was 35.5 µM, the IC50 (BE(2)-C; 24 hours) was > 100 µM and the IC50 (BE(2)-C; 48 hours) was > 100 µM. The IC50 (BE(2)-C; 72 hours) was > 100 µM, the IC50 (THLE3 (liver origin); THLE3, 24 hours) was > 100 µM and the IC50 (THLE3 (liver origin); THLE3, 48 hours) was 73 µM. The IC50 (THLE3 (liver origin); THLE3, 72 hours) was 80 µM, the IC50 (HS5 (bone marrow origin); HS5, 24 hours) was > 100 µM and the IC50 (HS5 (bone marrow origin); HS5, 48 hours) was 90 µM. For the same compound, the IC50 (HS5 (bone marrow origin); HS5, 72 hours) was > 100 µM.
